We go through 21 compounds from US20240116912A1, “COMPOUNDS AND METHODS FOR MODULATING FXR” (Terns Pharmaceuticals, Inc., priority 2020, published 2024).

For assay [1], the target named is full length human FXR protein (Homo sapiens (Human), UniProt Q96RI1). Briefly: FXR cellular assay (FXR-SRCP β-gal enzyme fragment complementation in CHO-K1 cells, chemiluminescence). The format is cell-based. Particulars: CHO-K1 cells with SRCP-EA and ProLink-labeled FXR, 0-10 micromolar compound, 37° C. for 6h, read-out: EC50 FXR-cell Luminescence/. From the text: A cell based FXR assay was used to detect protein-protein interactions between an activated (ligand-bound), full length human FXR protein and a nuclear fusion protein containing a Steroid Receptor Coactivator Peptide (SCRP) domain. In this approach, two weakly complementing fragments of the 3-gal enzyme were expressed within stably transfected Chinese Hamster Ovary (CHO-K1) cells. The complementing fragments of the 3-gal enzyme (ProLink, PK; and Enzyme Acceptor, EA) were translationally fused to the C-terminus of a full-length FXR and to the SRCP, respectively. Complementation was driven by the protein-protein interaction between SRCP-EA and a ProLink-labeled FXR. Upon FXR-SRCP binding, the two fragments of 3-gal complement, forming a functional enzyme capable of hydrolyzing a substrate molecule and generating a chemiluminescent signal.
CHO-K1 cells containing SRCP-EA and ProLink-labeled FXR were plated in 384-well microplates and incubated at 37° C. overnight. A positive control FXR agonist, GW4064 (0-10 micromolar), or test compounds (0-10 micromolar) were added to plated cells and incubated at 37° C. for 6h (final DMSO vehicle concentration was 1%). The assay signal was generated by addition of 50% (v/v) detection reagent (19:5:1, cell assay buffer: substrate reagent 1: substrate reagent 2, DiscoverX) followed by incubation for 1h at ambient room temperature. Microplates were analyzed using an Envision reader (PerkinElmer Life and Analytical Sciences, Signal=chemiluminescence).

In assay [2] the target is ligand binding domain (LBD) of recombinant human FXR (Homo sapiens (Human), UniProt Q96RI1). Kind of assay: FXR cell free coactivator (SRC-1) recruitment assay, TR-FRET. Particulars: FXR LBD (amino acids 244-476) with labeled SRC-1 domain, 25° C. for 60 minutes, activity relative to CDCA maximum; read-out: EC50 FXR- Biochemical TR-FRET/μM. As to the method:
A cell free coactivator recruitment assay was developed for FXR, to measure the functional potency of novel FXR compounds. In this assay, novel FXR compounds were bound to the ligand binding domain (LBD) of recombinant human FXR. The ability of this liganded homodimeric complex to recruit the co-activator protein steroid receptor coactivator 1 (SRC-1) was measured using Time-Resolved Fluorescence Resonance Energy Transfer (TR-FRET).
The LBD of human FXR (amino acids 244-476) was cloned into an expression vector for protein expression in SF9 insect cells. Purified FXR LBD was incubated in TR-FRET coregulator buffer G (Eurofins) with test compounds (0-10 micromolar) and a labeled nuclear receptor interaction domain of SRC-1 at 25° C. for 60 minutes (final DMSO vehicle concentration was 1.2%). Assays were analyzed using an Envision TR-FRET reader (PerkinElmer Life and Analytical Sciences). Compound activity at each concentration was defined as a percentage of the maximal activity of the natural FXR ligand agonist chenodeoxycholic acid (CDCA) generating a dose response curve.
Background: TR-FRET usually uses a lanthanide donor and a delayed reading to cut background.

Sequence of ligand binding domain (LBD) of recombinant human FXR (Q96RI1 254-486): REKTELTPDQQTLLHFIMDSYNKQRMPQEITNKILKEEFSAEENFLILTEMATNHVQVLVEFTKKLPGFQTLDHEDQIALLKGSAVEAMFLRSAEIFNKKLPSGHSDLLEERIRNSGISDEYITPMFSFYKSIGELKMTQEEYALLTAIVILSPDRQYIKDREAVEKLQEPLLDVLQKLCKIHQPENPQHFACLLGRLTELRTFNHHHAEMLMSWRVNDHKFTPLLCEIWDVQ
Sequence of ligand binding domain (LBD) of recombinant human FXR (Q15788 whole entry partner, the tested form may be a part): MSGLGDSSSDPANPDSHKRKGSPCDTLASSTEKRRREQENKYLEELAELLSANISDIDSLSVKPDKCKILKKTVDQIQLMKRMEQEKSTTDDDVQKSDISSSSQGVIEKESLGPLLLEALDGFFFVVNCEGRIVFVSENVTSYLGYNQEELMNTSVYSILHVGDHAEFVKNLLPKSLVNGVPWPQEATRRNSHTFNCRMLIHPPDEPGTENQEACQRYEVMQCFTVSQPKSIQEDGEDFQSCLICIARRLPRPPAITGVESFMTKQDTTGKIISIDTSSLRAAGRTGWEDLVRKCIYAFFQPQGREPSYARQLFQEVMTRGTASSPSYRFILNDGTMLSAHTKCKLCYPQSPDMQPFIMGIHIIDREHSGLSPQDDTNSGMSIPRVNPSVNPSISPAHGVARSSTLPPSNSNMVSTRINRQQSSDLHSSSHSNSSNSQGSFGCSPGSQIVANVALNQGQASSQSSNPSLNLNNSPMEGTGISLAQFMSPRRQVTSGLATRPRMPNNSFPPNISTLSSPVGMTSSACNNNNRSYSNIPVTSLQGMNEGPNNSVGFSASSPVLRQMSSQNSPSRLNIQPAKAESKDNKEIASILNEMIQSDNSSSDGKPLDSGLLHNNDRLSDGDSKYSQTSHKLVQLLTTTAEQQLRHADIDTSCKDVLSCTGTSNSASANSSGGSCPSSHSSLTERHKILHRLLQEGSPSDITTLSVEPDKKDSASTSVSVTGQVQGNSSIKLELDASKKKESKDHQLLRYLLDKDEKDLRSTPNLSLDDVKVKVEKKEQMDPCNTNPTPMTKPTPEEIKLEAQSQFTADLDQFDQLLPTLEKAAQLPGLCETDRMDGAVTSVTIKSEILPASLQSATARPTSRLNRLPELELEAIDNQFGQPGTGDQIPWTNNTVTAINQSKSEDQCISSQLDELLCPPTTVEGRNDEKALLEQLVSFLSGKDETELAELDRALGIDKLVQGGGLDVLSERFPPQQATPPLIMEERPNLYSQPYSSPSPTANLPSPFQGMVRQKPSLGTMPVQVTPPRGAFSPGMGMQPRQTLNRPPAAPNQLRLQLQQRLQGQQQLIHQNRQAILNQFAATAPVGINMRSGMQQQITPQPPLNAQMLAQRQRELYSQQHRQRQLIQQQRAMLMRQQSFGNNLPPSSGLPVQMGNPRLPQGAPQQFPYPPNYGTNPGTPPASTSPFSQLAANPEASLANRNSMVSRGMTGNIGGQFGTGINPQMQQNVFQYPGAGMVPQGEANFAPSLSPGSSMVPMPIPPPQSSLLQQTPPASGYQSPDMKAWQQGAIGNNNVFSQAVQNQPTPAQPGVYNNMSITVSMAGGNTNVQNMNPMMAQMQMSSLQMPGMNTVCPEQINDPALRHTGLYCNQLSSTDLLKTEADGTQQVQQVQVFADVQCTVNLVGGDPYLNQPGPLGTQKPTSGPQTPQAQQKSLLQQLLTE
Sequence of full length human FXR protein (Q96RI1 whole entry, the tested form may be a part): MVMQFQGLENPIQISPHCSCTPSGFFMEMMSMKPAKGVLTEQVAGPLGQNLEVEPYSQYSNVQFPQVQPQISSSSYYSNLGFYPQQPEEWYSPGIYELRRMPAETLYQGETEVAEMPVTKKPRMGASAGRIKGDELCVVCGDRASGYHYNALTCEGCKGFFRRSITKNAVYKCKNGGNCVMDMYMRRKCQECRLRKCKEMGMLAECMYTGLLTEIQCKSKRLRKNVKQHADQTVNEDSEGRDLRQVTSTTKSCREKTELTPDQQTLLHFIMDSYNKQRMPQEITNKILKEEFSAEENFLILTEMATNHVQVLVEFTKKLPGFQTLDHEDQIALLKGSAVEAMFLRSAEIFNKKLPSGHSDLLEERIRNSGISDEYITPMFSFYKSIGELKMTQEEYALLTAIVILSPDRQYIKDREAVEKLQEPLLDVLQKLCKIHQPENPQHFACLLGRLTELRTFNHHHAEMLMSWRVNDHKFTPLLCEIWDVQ

As for `C[C@@H]1C[C@H](OCc2c(-c3c(Cl)cccc3Cl)noc2C2CC2)CCN1c1ccc(-c2noc(=O)[nH]2)cn1` [Example 71, 3-(6-((2R,4R)-4-((5-cyclopropyl-3-(2,6-dichlorophenyl)isoxazol-4-yl)methoxy)-2-methylpiperidin-1-yl)pyridin-3-yl)-1,2,4-oxadiazol-5(4H)-one], the EC50 was 0.0247 µM in assay [1] and 0.0021 µM in assay [2].
For the compound `O=c1cc(-c2ccc(N3CCC(OCc4c(-c5ccccc5OC(F)(F)F)noc4C4CC4)CC3)cc2)o[nH]1` [Example 52, 5-(4-(4-((5-cyclopropyl-3-(2-(trifluoromethoxy)phenyl)isoxazol-4-yl)methoxy)piperidin-1-yl)phenyl)isoxazol-3(2H)-one], the EC50 in assay [1] came to 1.63 µM; in assay [2] it was 0.143 µM.
The matching figures for `C[C@H]1C[C@@H](OCc2c(-c3c(Cl)cccc3Cl)noc2C2CC2)CCN1c1ccc(-c2noc(=O)[nH]2)cc1` [Example 22, 3-(4-((2S,4S)-4-((5-cyclopropyl-3-(2,6-dichlorophenyl)isoxazol-4-yl)methoxy)-2-methylpiperidin-1-yl)phenyl)-1,2,4-oxadiazol-5(4H)-one]: 0.418 µM and 0.0633 µM.
Consider `O=c1[nH]c(-c2ccc(N3CCC(OCc4c(-c5c(F)cccc5F)noc4C4CC4)C(F)(F)C3)cc2)no1` (stereo not drawn) [Example 55, 3-(4-(4-((5-cyclopropyl-3-(2,6-difluorophenyl)isoxazol-4-yl)methoxy)-3,3-difluoropiperidin-1-yl)phenyl)-1,2,4-oxadiazol-5(4H)-one], for which the EC50 in assay [1] came to 0.852 µM; in assay [2] it was 0.174 µM.
`O=c1[nH]c(-c2ccc(N3CCC(OCc4c(-c5c(Cl)cccc5Cl)noc4C4CC4)CC3)cc2F)no1` [Example 13, 3-(4-(4-((5-cyclopropyl-3-(2,6-dichlorophenyl)isoxazol-4-yl)methoxy)piperidin-1-yl)-2-fluorophenyl)-1,2,4-oxadiazol-5(4H)-one]: the figures for the EC50 in assay [1] and in assay [2] were 0.0823 µM and 0.0035 µM, respectively.
Regarding `O=c1[nH]c(-c2ccc(N3CCCC(OCc4c(-c5ccccc5OC(F)(F)F)noc4C4CC4)CC3)cc2)no1` (stereo not drawn) [Example 47, 3-(4-(4-((5-cyclopropyl-3-(2-(trifluoromethoxy)phenyl)isoxazol-4-yl)methoxy)azepan-1-yl)phenyl)-1,2,4-oxadiazol-5(4H)-one], the figures for the EC50 in assay [1] and in assay [2] were 0.0767 µM and 0.0037 µM, respectively.
The matching figures for `O=c1[nH]c(-c2ccc(N3CCC(OCc4c(-c5ccccc5OC(F)(F)F)noc4C4CC4)C(F)(F)C3)nc2)no1` (stereo not drawn) [Example 64, 3-(6-(4-((5-cyclopropyl-3-(2-(trifluoromethoxy)phenyl)isoxazol-4-yl)methoxy)-3,3-difluoropiperidin-1-yl)pyridin-3-yl)-1,2,4-oxadiazol-5(4H)-one]: 2.31 µM and 0.07 µM.
Consider `Cn1nc(N2CCC(OCc3c(-c4c(Cl)cccc4Cl)noc3C3CC3)CC2)cc1-c1noc(=O)[nH]1` [Example 70, 3-(3-(4-((5-cyclopropyl-3-(2,6-dichlorophenyl)isoxazol-4-yl)methoxy)piperidin-1-yl)-1-methyl-1H-pyrazol-5-yl)-1,2,4-oxadiazol-5(4H)-one], for which the values for the EC50 in assay [1] and in assay [2] were over 10 µM and 0.233 µM, respectively.
Turning to `C[C@H]1CN(c2ccc(-c3noc(=O)[nH]3)cc2)CC[C@H]1OCc1c(-c2c(Cl)cccc2Cl)noc1C1CC1` [Example 32, 3-(4-((3S,4R)-4-((5-cyclopropyl-3-(2,6-dichlorophenyl)isoxazol-4-yl)methoxy)-3-methylpiperidin-1-yl)phenyl)-1,2,4-oxadiazol-5(4H)-one], the EC50 in assay [1] was determined as 0.195 µM; in assay [2] it was 0.0126 µM.
In the case of `O=c1[nH]c(-c2cnc(N3CCC(OCc4c(-c5c(Cl)cccc5Cl)noc4C4CC4)CC3)nc2)no1` [Example 5, 3-(2-(4-((5-cyclopropyl-3-(2,6-dichlorophenyl)isoxazol-4-yl)methoxy)piperidin-1-yl)pyrimidin-5-yl)-1,2,4-oxadiazol-5(4H)-one], the EC50 in assay [1] turned out to be 2.53 µM; in assay [2], 0.031 µM.
On to `O=c1[nH]nc(-c2ccc(N3CCC(OCc4c(-c5c(Cl)cccc5Cl)noc4C4CC4)CC3)cn2)o1` [Example 40, 5-(5-(4-((5-cyclopropyl-3-(2,6-dichlorophenyl)isoxazol-4-yl)methoxy)piperidin-1-yl)pyridin-2-yl)-1,3,4-oxadiazol-2(3H)-one], for which the EC50 is 0.341 µM in assay [1] and 0.076 µM in assay [2].
Regarding `O=c1cnn(-c2ccc(N3CCC(OCc4c(-c5c(Cl)cccc5Cl)noc4C4CC4)CC3)cc2)c(=O)[nH]1` [Example 17, 2-(4-(4-((5-cyclopropyl-3-(2,6-dichlorophenyl)isoxazol-4-yl)methoxy)piperidin-1-yl)phenyl)-1,2,4-triazine-3,5(2H,4H)-dione], the EC50 in assay [1] came to 4.73 µM; in assay [2], 6.07 µM.
Regarding `C[C@H]1CN(c2ccc(-c3noc(=O)[nH]3)cc2)CC[C@@H]1OCc1c(-c2c(Cl)cccc2Cl)noc1C1CC1` [Example 33, 3-(4-((3S,4S)-4-((5-cyclopropyl-3-(2,6-dichlorophenyl)isoxazol-4-yl)methoxy)-3-methylpiperidin-1-yl)phenyl)-1,2,4-oxadiazol-5(4H)-one], the EC50 in assay [1] amounted to 0.702 µM; in assay [2], 0.142 µM.
Turning to `O=c1[nH]c(-c2ccc(N3CCC(OCc4c(-c5c(F)cccc5F)noc4C4CC4)CC3)nc2)no1` [Example 74, 3-(6-(4-((5-cyclopropyl-3-(2,6-difluorophenyl)isoxazol-4-yl)methoxy)piperidin-1-yl)pyridin-3-yl)-1,2,4-oxadiazol-5(4H)-one], the values for the EC50 in assay [1] and in assay [2] were 1.45 µM and 0.107 µM, respectively.
The matching figures for `O=c1[nH]c(-c2cc(N3CCC(OCc4c(-c5c(Cl)cccc5Cl)noc4C4CC4)CC3)cs2)no1` [Example 30, 3-(4-(4-((5-cyclopropyl-3-(2,6-dichlorophenyl)isoxazol-4-yl)methoxy)piperidin-1-yl)thiophen-2-yl)-1,2,4-oxadiazol-5(4H)-one]: 3.62 µM and 0.296 µM.
As for `O=c1[nH]c(-c2ncc(N3CCC(OCc4c(-c5c(Cl)cccc5Cl)noc4C4CC4)CC3)s2)no1` [Example 56, 3-(5-(4-((5-cyclopropyl-3-(2,6-dichlorophenyl)isoxazol-4-yl)methoxy)piperidin-1-yl)thiazol-2-yl)-1,2,4-oxadiazol-5(4H)-one], the EC50 in assay [1] is 0.887 µM; in assay [2], 0.0431 µM.
As for `O=c1[nH]c(-c2ccc(N3CCC(OCc4c(-c5c(Cl)cccc5Cl)noc4C4CC4)C3)cc2)no1` (stereo not drawn) [Example 15, 3-(4-(3-((5-cyclopropyl-3-(2,6-dichlorophenyl)isoxazol-4-yl)methoxy)pyrrolidin-1-yl)phenyl)-1,2,4-oxadiazol-5(4H)-one], the EC50 in assay [1] worked out at 5.51 µM; in assay [2] it was 0.892 µM.
In the case of `O=c1[nH]c(-c2ccc(N3CCCC(OCc4c(-c5c(Cl)cccc5Cl)noc4C4CC4)CC3)cc2)no1` (stereo not drawn) [Example 18, 3-(4-(4-((5-cyclopropyl-3-(2,6-dichlorophenyl)isoxazol-4-yl)methoxy)azepan-1-yl)phenyl)-1,2,4-oxadiazol-5(4H)-one], the values for the EC50 in assay [1] and in assay [2] were 0.0184 µM and 0.0029 µM, respectively.
In the case of `O=c1[nH]c(-c2ccc(N3CCC(OCc4c(-c5c(F)cccc5F)noc4C4CC4)CC3)cc2)no1` [Example 26, 3-(4-(4-((5-cyclopropyl-3-(2,6-difluorophenyl)isoxazol-4-yl)methoxy)piperidin-1-yl)phenyl)-1,2,4-oxadiazol-5(4H)-one], the figures for the EC50 in assay [1] and in assay [2] were 0.562 µM and 0.111 µM, respectively.
With `O=c1[nH]nc(-c2ccc(N3CCC(OCc4c(-c5c(Cl)cccc5Cl)noc4C4CC4)CC3)cn2)c(=O)[nH]1` [Example 46, 6-(5-(4-((5-cyclopropyl-3-(2,6-dichlorophenyl)isoxazol-4-yl)methoxy)piperidin-1-yl)pyridin-2-yl)-1,2,4-triazine-3,5(2H,4H)-dione], the results for the EC50 in assay [1] and in assay [2] were 10 µM and 0.0746 µM, respectively.
`O=c1[nH]c(-c2ncc(N3CCC(OCc4c(-c5c(Cl)cccc5Cl)noc4C4CC4)CC3)cn2)no1` [Example 8, 3-(5-(4-((5-cyclopropyl-3-(2,6-dichlorophenyl)isoxazol-4-yl)methoxy)piperidin-1-yl)pyrimidin-2-yl)-1,2,4-oxadiazol-5(4H)-one]: the figures for the EC50 in assay [1] and in assay [2] were 2.11 µM and 0.0281 µM, respectively.
